The source of these data is publication PMC10541198, “Specific quinone reductase 2 inhibitors reduce metabolic burden and reverse Alzheimer’s disease phenotype in mice” (The Journal of Clinical Investigation, 2023).

Where “and” joins values, the source holds several entries; their conditions need not be identical. Equal values may be shown once.

This assay relates to 5xFAD mice. Put plainly: Delay fear conditioning in 5xFAD mice, YB-537 in drinking water. Conditions: for freezing to conditioned context (individual mice) / freezing to conditioned cue (individual mice): in % (unit assumed); for Figure 8A, delay fear conditioning: individual animals. The class given is in vivo, mouse. More on the design: Figure 8A, delay fear conditioning: unit not given here. The procedure:
We next aimed to test the effect of QR2 inhibition in AD model mice using YB-537, taking advantage of its extremely high specificity, solubility, and lack of toxicity. First, we determined YB-537 pharmacokinetics (PK) and oral bioavailability and assessed any acute observable toxicity in mice. […] We therefore opted to chronically deliver YB-537 to AD-model mice via their drinking water, so they may freely ingest the inhibitor at 50 mg/kg, with minimal intervention or trauma, for 1 month. We chose 9-month-old 5xFAD ([27]) male and female mice in double-blind experiments, so that well-progressed symptoms and pathologies would be present, to mimic clinically relevant cases in human patients ([35]), as has been previously described in this mouse model. Other than an improvement in nest quality ([36]) over time seen in animals receiving YB-537 (starting at age 8 months and ending at age 9 months), no changes to general physical parameters or wellbeing were observed over the 1 month of YB-537 ingestion (Supplemental Figure 6, A–J). Animals received the treatment for a week, and, on week 2, behavioral experiments commenced, including Morris water maze (MWM) and novel object recognition (NOR). These were carried out in parallel, with half of the animals (including both sexes and treatments) undergoing 1 of the paradigms in week 2, and the other in week 3. […] Since learning in this paradigm was slow, and performance was poor even following 6 days of training (using 4 learning trials a day), a test day was not carried out and instead only the learning rate was measured. […] Finally, during week 4, all the mice underwent DFC.
Since 1 month of chronic YB-537 ingestion rescued cognitive and pathological phenotypes more efficiently in female compared with male 5xFAD mice, we hypothesized that males may require a longer dosing regimen than females in order achieve a similar therapeutic effect. We therefore ran an additional experiment where we treated 5-month-old male 5xFAD mice with 50 mg/kg of YB-537 in drinking water for 4 months (starting at the age of 5 months, and ending at the age of 9 months, similar to the experiment described above), and compared cognitive performance to male 5xFAD and WT control mice of the same age not being treated with YB-537, using DFC in double-blind experiments.
DFC was done as previously described ([7]). Briefly, mice were given 2 minutes to explore the conditioning chambers, during which baseline freezing was measured. Then, a 20 second, 4 kHz, 80 dB tone was given, coterminating with the start of a 2 second, 0.5 mA foot-shock. This was repeated twice more in 1 minute intervals. Following the third and last bout, 1 minute was given before the animals were removed from the chambers. The next day, the animals were returned to the room under the same conditions and were placed back into the chambers, and freezing to the context was measured over the course of 5 minutes. The next day, the mice were brought to unfamiliar conditioning rooms and chambers. In this unfamiliar context, the protocol from the first day was repeated, except without the foot shocks. Freezing for the cue was recorded, starting from the sounding of the first tone. All measurements were taken with a Sentec stc-tb33usb-at camera, and analysis was done with Freeze Frame software (Actimetrics). […]
only, and kept there for 2 min. They were then placed inside a Habitest Operant Cage, within a Habitest Isolation Cubicle (Coulbourn), on a modular shock floor made of 16 m et al grids, connected to Precision Animal Shockers (Coulbourn) with illumination inside the cage coming from a 20 W bulb. Themice were given 2 min to explore, during which baseline freezing was measured. Then, a 20 s, 4 kHz, 80 dB tone was given, co- terminating with the start of a 2 s, 0.5 mA foot-shock, which was repeated a further two times, each having 1 min interval. Following the third, and last of these bouts, 1 min was given prior to the animals being removed from the chambers. […]

Turning to `Cc1ccc(-c2cn3cccc(C)c3n2)cc1S(=O)(=O)N1CCNCC1` [YB-537], the “freezing to conditioned context (individual mice)” value reads like this: (5xFAD 1 month, both sexes) 26.3 and 36.9 and 45.3 and 29.6 and 49.0 and 37.4 and 41.6 and 45.9 and 41.9 and 40.7 and 24.2 and 16.0 and 23.6 and 22.5 and 44.6 and 33.3; (5xFAD 1 month, females) 26.3 and 36.9 and 16.0 and 23.6 and 22.5 and 44.6 and 33.3; (5xFAD 1 month, males) 45.9 and 41.9 and 40.7 and 24.2 and 45.3 and 29.6 and 49.0 and 37.4 and 41.6; (male 5xFAD, 4 months) 24.6 and 26.8 and 50.3 and 22.2 and 32.3 and 63.4 and 63.3 and 75.1 and 38.8. Also, the “freezing to conditioned cue (individual mice)” value (“freezing to conditioned cue” for short) (5xFAD 1 month, both sexes) is 15.0 and 17.0 and 24.7 and 22.5 and 22.1 and 14.0 and 31.4 and 12.7 and 18.5 and 20.4 and 8.8 and 16.5 and 7.1 and 13.0 and 5.4 and 14.5; the “freezing to conditioned cue” value (5xFAD 1 month, females) was 15.0 and 17.0 and 16.5 and 7.1 and 13.0 and 5.4 and 14.5; the “freezing to conditioned cue” value (5xFAD 1 month, males) was 12.7 and 18.5 and 20.4 and 8.8 and 24.7 and 22.5 and 22.1 and 14.0 and 31.4; the “freezing to conditioned cue” value (male 5xFAD, 4 months) was 44.3 and 66.5 and 54.4 and 28.0 and 38.6 and 64.3 and 47.4 and 65.9 and 58.0. Besides, the “Figure 8A, delay fear conditioning” value is 11.3 and 26.4 and 19.1 and 15.1 and 10.9 and 6.4 and 3.1 and 7.6 and 8.2 (Baseline); 31.6 and 45.2 and 36.2 and 37.7 and 37.5 and 20.1 and 19.4 and 47.6 and 48.9 (CS/US 1); 48.3 and 58.0 and 52.7 and 47.1 and 45.6 and 18.2 and 23.2 and 57.0 and 60.3 (CS/US 2); 62.5 and 61.5 and 55.2 and 55.7 and 52.0 and 17.2 and 31.2 and 65.3 and 57.9 (CS/US 3). Also, the “learning during delay-fear conditioning” value (male 5xFAD, 50 mg/kg in drinking water 4 months) is listed as “normal learning”. The “learning during delay fear conditioning” value (male and female 5xFAD, 1 month in drinking water) is listed as “no difference observed across groups”.
